Six compounds from patent US10398142B2, “Polycationic amphiphiles as antimicrobial agents” (priority 2013, dated 2019) can be followed below.

Read-outs that look alike come from different tables or passages of the source. Marks after values point to notes of the source that are not given here.

In general, MIC refers to the lowest concentration found to suppress growth.

The subject of series [1] is S. aureus (MSSA, SH1000) biofilms. The experiment in a line: Minimum biofilm eradication concentration (MBEC), regrowth assay. It is filed as cell-based, Staphylococcus aureus. The following applies: for MBEC MSSA: Table 5, SH1000; for MBEC S. aureus: Table 2, pre-established biofilm, ± values varied between 50 and 100 μM for the six trials. Summed up:
(§1)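 Static 24 h biofilms at 37° C. (BHI for S. aureus, Todd Hewitt for E. faecalis), then 16 h compound exposure, PBS washes and overnight regrowth in fresh media. MBEC is the lowest concentration giving final OD595 below 0.1; four replicates per concentration.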

Series [2] concerns Staphylococcus aureus MSSA (SH1000). The experiment in a line: Minimum inhibitory concentration (MIC), broth microdilution. The class given is cell-based. An outline of the steps: (§2)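 Broth microdilution: two-fold serial dilutions (twelve concentrations) mixed 1:1 with overnight cultures diluted to ca. 10^6 cfu/mL in Mueller-Hinton media, incubated statically at 37° C for 72 hours. MIC is lowest concentration with no growth visible to the naked eye, majority of three independent experiments.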
A general note: Broth dilution looks for growth in wells or tubes with falling amounts of substance.

For series [3], the system named is Pseudomonas aeruginosa (PAO1). The series is described as above. It is filed as cell-based. Summed up:
as §2

Series [4] concerns Escherichia coli (MC4100). The series is described as above. The following applies: read-out: MIC E. coli. It is filed as cell-based. An outline of the steps: as §2
The subject of series [5] is Enterococcus faecalis (OG1RF). The series is described as above. The class given is cell-based. The following applies: read-out: MIC E. faecalis. An outline of the steps: as §2
For series [6], the system named is CA-MRSA (USA300-0114). The description is as above. It is filed as cell-based, Staphylococcus aureus. Conditions: for MIC: read-out: MIC CA-MRSA. The protocol: (§3) Different biological assays were performed. […] All cultures, with the exception of E. faecalis, were grown with shaking at 250 rpm.
(§4) Minimum inhibitory concentration (MIC) values against bacteria were measured using standard method. Compounds were serially diluted two-fold from an aqueous stock solution to yield twelve test concentrations. Overnight S. aureus, E. faecalis, E. coli, P. aeruginosa, CA-MRSA, and HA-MRSA cultures diluted to ca. 10^6 cfu/mL in Mueller-Hinton media and 100 μL were inoculated into each well of a U-bottom 96-well plate (BD Biosciences, BD351177) containing 100 μL of compound solution. Plates were incubated statically at 37° C. for 72 hours upon which time wells were evaluated visually for bacterial growth. The MIC was determined as the lowest concentration of compound resulting in no bacterial growth visible to the naked eye, based on the majority of three independent experiments. Positive and negative aqueous and media controls were conducted for each trial.

The subject of series [7] is HA-MRSA (ATCC 33591). The series is described as above. The class given is cell-based, Staphylococcus aureus. Conditions: read-out: MIC HA-MRSA. On the procedure: as §3, §4
In series [8] the test system is red blood cells (defibrinated sheep blood). The experiment in a line: Hemolysis assay (Lysis20). The following applies: Table 4; concentration at which less than 20% of red blood cells are lysed. On the procedure:
Hemolysis assays (Lysis20) were performed according to the procedure detailed in Peng, L., DeSousa, J., Su, Z., Novak, B. M., Nevzorov, A. A., Garland, E. R., and Melander, C., Inhibition of Acinetobacter baumannii biofilm formation on a methacrylate polymer containing a 2-aminoimidazole subunit, Chem. Comm. 2011, 47, 4896-4898. Defibrinated sheep blood was purchased from Hemostat Labs (DSB 100). Compounds representative of each class were serially diluted in sterile PBS from aqueous stock solutions and incubated with resuspended blood cells. The OD of the final suspensions were measured directly using plate reader. TritonX (1% by volume) served as a positive control (100% lysis marker) and sterile PBS served as a negative control (0% lysis marker).
Lysis20 indicates the concentration of compound (in μM) at which less than 20% of red blood cells are lysed.

The subject of series [9] is CA-MRSA (USA300-0114) biofilms. The experiment in a line: Minimum biofilm eradication concentration (MBEC), regrowth assay. The class given is cell-based, Staphylococcus aureus. Conditions: Table 5; USA300-0114. The protocol: A regrowth assay was used to establish the MBEC of a compound to evaluate the antibiofilm activity. See also H. Ceri, M. Olson, D. Morck, D. Storey, R. Read, A. Buret, B. Olson, Methods Enzymol. 2001, 337, 377.
Different biological assays were performed. For all biological assays, laboratory strains of methicillin-susceptible Staphylococcus aureus MSSA (SH1000), Enterococcus faecalis (OG1RF), Escherichia coli (MC4100), Pseudomonas aeruginosa (PAO1), community-acquired methicillin-resistant Staphylococcus aureus CA-MRSA (USA300-0114), and hospital-acquired methicillin-resistant Staphylococcus aureus HA-MRSA (ATCC 33591) were grown at 37° C. overnight from freezer stocks in 10 mL of the media indicated for each assay. All cultures, with the exception of E. faecalis, were grown with shaking at 250 rpm.
Minimum biofilm eradication concentration (MBEC) was also measured. To each well of a flat-bottomed 96-well plate (Corning 3370), 8 μL of overnight bacterial culture was brought to a volume of 200 μL with fresh media (BHI for S. aureus and MRSA, Todd Hewitt (TH) for E. faecalis). Plates were incubated statically for 24 hours at 37° C. to establish biofilms. After 24 hours, the wells were carefully emptied by inverting the plate and gently shaking. A pre-mixed solution of media and aqueous compound stock solution was added to each well and plates were incubated at 37° C. 16 hours after pre-established biofilms were treated with compound, the media from each well was removed, biofilms were washed three times with 200 μL PBS to remove planktonic cells, and biofilms were incubated overnight at 37° C. in 200 μL of fresh media to allow any viable cells to continue growing. The wells were then vigorously pipetted to resuspend the biofilm cells and the OD at 595 nm was measured using a plate reader (POLARstar Omega, BMG Labtech). Biofilms reaching a final OD of less than 0.1 were considered eradicated and the lowest concentration of antibiotic corresponded to the MBEC. Four replicates were completed for each concentration of compound as well as positive and negative controls.

In series [10] the test system is E. faecalis biofilms. The series is described as above. The class given is cell-based, Enterococcus faecalis. Summed up:
as §1

Series [11] deals with MSSA (SH1000). The experiment in a line: Resistance development, liquid culture serial passage. The class given is cell-based, Staphylococcus aureus. The following applies: for elevated concentration with consistent growth: MSSA (SH1000) passaged with sub-lethal doses. On the procedure:
Resistance development such as liquid culture resistance assay was performed. […] Once a day, an aliquot of bacterial culture from the highest concentration allowing bacterial growth was diluted 1:10,000 in fresh media containing a range of antibacterial compound. This process was repeated for several hundred generations.
Resistance Development Assays: Liquid culture serial passage protocols, in which bacteria are successively grown at sub-lethal concentrations of antibacterial compound, were employed.

Where [12] appears, read: Table 3, read-out: MIC S. aureus.
[13] abbreviates: Table 4, SH1000, read-out: MIC MSSA.
[14] abbreviates: Table 3, read-out: MIC P. aeruginosa.
[15] abbreviates: Table 2, pre-established biofilm, ± values varied between 50 and 100 μM for the six trials.

On to `CCCCCCCCCCCC[N+](C)(C)CCC[N+](C)(CCCCCCCCCCCC)CCC[N+](C)(C)CCCCCCCCCCCC.[Br-].[Br-].[Br-]` [12,3,12,3,12], for which the “MBEC MSSA” value in series [1] worked out at 100 µM. Moreover, the MIC is recorded as 0.5 µM in series [2] (setting [12]); 0.5 µM in series [2] (setting [13]); 4 µM in series [3] (setting [14]); 1 µM in [4] (Table 3); 1 µM in series [5] (Table 3); 1 µM in series [6] (Table 4, USA300-0114). The MIC in series [7] (Table 4, ATCC 33591) stood at 1 µM. The Lysis20 in [8] was found to be 4 µM. In series [9], the “MBEC CA-MRSA” value was >200 µM. Besides, the “MBEC E. faecalis” value in series [10] (Table 5) was found to be 200 µM.

For `CCCCCCCCCCCC[N+](C)(C)CCC[N+](C)(CCC[N+](C)(C)CCCCCCCCCCCC)Cc1ccccc1.[Br-].[Br-].[Br-]` [12,3,Bn,3,12], in series [1], the “MBEC MSSA” value was 100 µM. Moreover, the minimal inhibitory concentration (MIC) in series [2] (setting [12]) is reported as 1 µM; in [2] (setting [13]), 2 µM; in [3] (setting [14]), 2 µM; in series [4] (Table 3) it was 1 µM; in series [5] (Table 3) it was 1 µM; in [6] (Table 4, USA300-0114), 1 µM. Besides, the MIC in series [7] (Table 4, ATCC 33591) is listed as 1 µM. The compound further showed a Lysis20 in series [8] of 8 µM. Further, in series [9], the “MBEC CA-MRSA” value came out at 200 µM. Further, in series [10] (Table 5), the “MBEC E. faecalis” value is 100 µM.

For `CCCCCCCCCCCC[N+](C)(C)CCC[N+](C)(CCC[N+](C)(C)CCCCCCCCCCCC)Cc1ccc(CCCCCCCC)cc1.[Br-].[Br-].[Br-]` [12,3,Bn-8,3,12], the “MBEC MSSA” value in series [1] is 200 µM. In addition, the MIC was 1 µM in series [2] (setting [12]); 2 µM in series [2] (setting [13]); 4 µM in series [3] (setting [14]); 1 µM in series [4] (Table 3); 1 µM in series [5] (Table 3); 2 µM in series [6] (Table 4, USA300-0114). Further, in series [7] (Table 4, ATCC 33591), the MIC is on record as 1 µM. Moreover, the Lysis20 in series [8] was found to be 8 µM. Moreover, the “MBEC CA-MRSA” value in series [9] is >200 µM. Further, the “MBEC E. faecalis” value in series [10] (Table 5) is 200 µM.

In the case of `CCCCCCCCCCCC[N+](C)(C)CCCCC[N+](C)(C)CCCCCCCCCCCC.[Br-].[Br-]` [12,5,12], the “MBEC S. aureus” value in series [1] is 75 ± 25^a μM. In [1], the “MBEC MSSA” value is 50 µM. Moreover, the MIC in series [2] (Table 1, read-out: MIC S. aureus) was found to be 1 µM; in series [2] (setting [12]), 2 µM; in [2] (setting [13]), 2 µM; in [3] (Table 1, read-out: MIC P. aeruginosa) it was 4 µM; in [3] (setting [14]), 2 µM; in [4] (Table 1), 1 µM. For the same compound, the MIC in [4] (Table 3) was 1 µM; in series [5] (Table 1) it was 1 µM; in series [5] (Table 3) it was 1 µM; in [6] (Table 4, USA300-0114), 1 µM; in series [7] (Table 4, ATCC 33591) it was 0.5 µM. Also, the Lysis20 in [8] came out at 8 µM. Moreover, the “MBEC CA-MRSA” value in series [9] amounted to 100 µM. In addition, the “MBEC E. faecalis” value was 75 ± 25^a μM in [10] (setting [15]) and 100 µM in series [10] (Table 5).

Take `CCCCCCCCCCCCCCCC[N+](C)(C)CCCCC[N+](C)(C)CCCCCCCCCCCCCCCC.[Br-].[Br-]` [16,5,16]: the “MBEC MSSA” value in series [1] came out at 200 µM. Moreover, the MIC was found to be 2 µM in series [2] (setting [12]); 2 µM in [2] (setting [13]); 32 µM in series [3] (setting [14]); 16 µM in series [4] (Table 3); 2 µM in [5] (Table 3); 8 µM in [6] (Table 4, USA300-0114). In addition, the MIC in series [7] (Table 4, ATCC 33591) was determined as 1 µM. Besides, the Lysis20 in [8] was found to be 4 µM. In addition, the “MBEC CA-MRSA” value in [9] is >200 µM. In addition, the “MBEC E. faecalis” value in series [10] (Table 5) was ≥200 µM.

For `CCCCCCCCCCCC[N+](C)(C)Cc1ccccc1.[Cl-]` [Bn,12, benzyldimethyldodecylammonium chloride, reference compound], the “MBEC S. aureus” value in series [1] came out at 200 µM. The “MBEC MSSA” value in series [1] was >200 µM. In addition, the MIC in series [2] (Staphylococcus aureus, MSSA, read-out: MIC MSSA) was 8 µM; in series [2] (Staphylococcus aureus, MSSA, read-out: MIC S. aureus), 8 µM; in series [2] (setting [12]), 8 µM; in series [3] (Pseudomonas aeruginosa, PAO1, read-out: MIC P. aeruginosa), 63 µM; in series [3] (setting [14]) it was 63 µM; in series [4] (Escherichia coli), 32 µM. In addition, the MIC in series [4] (Table 3) turned out to be 32 µM; in [5] (Enterococcus faecalis) it was 8 µM; in series [5] (Table 3), 8 µM; in [6] (Staphylococcus aureus), 32 µM; in series [7] (Staphylococcus aureus), 8 µM. Further, the “potency against CA-MRSA strain possessing qacA/R (in words)” value in series [6] (compared with MSSA) is recorded as “decreased potency”. In series [8], the Lysis20 was found to be 63 µM. In addition, the “MBEC CA-MRSA” value in series [9] is ≤200 µM. Also, the “MBEC E. faecalis” value in series [10] (setting [15]) is 200 µM; in [10] (Table 5) it was ≥200 µM. In addition, the “resistance development in MSSA (in words)” value in series [11] (Bn,12: 31 days (>700 generations), 10,10: 10 days, 240 generations) is given as “development of resistance”. Besides, the “elevated concentration with consistent growth” value is recorded as 2 ×MIC in [11] (at day 11) and 4 ×MIC in series [11] (at day 24).
